The text below walks through data of patent US20240115541A1, “METHOD FOR TREATING CEREBRAL APOPLEXY AND HYPERBILIRUBINEMIA BY COMPOUND FOR INHIBITING COMBINATION OF BILIRUBIN AND TRPM2 CHANNEL” (SHANGHAI SIXTH PEOPLE'S HOSPITAL, priority 2022, published 2024).

The target of series [1] is T1, K928A/D1069A double mutant TRPM2 channel (Homo sapiens, UniProt O94759, D1069A/K928A).
T1 construct: expressed in transfected cells; host or cells: HEK293T cells, Lipofectamine 3000, GFP cDNA co-transfected as a separate marker
T1 sequence (O94759 whole entry K928A/D1069A): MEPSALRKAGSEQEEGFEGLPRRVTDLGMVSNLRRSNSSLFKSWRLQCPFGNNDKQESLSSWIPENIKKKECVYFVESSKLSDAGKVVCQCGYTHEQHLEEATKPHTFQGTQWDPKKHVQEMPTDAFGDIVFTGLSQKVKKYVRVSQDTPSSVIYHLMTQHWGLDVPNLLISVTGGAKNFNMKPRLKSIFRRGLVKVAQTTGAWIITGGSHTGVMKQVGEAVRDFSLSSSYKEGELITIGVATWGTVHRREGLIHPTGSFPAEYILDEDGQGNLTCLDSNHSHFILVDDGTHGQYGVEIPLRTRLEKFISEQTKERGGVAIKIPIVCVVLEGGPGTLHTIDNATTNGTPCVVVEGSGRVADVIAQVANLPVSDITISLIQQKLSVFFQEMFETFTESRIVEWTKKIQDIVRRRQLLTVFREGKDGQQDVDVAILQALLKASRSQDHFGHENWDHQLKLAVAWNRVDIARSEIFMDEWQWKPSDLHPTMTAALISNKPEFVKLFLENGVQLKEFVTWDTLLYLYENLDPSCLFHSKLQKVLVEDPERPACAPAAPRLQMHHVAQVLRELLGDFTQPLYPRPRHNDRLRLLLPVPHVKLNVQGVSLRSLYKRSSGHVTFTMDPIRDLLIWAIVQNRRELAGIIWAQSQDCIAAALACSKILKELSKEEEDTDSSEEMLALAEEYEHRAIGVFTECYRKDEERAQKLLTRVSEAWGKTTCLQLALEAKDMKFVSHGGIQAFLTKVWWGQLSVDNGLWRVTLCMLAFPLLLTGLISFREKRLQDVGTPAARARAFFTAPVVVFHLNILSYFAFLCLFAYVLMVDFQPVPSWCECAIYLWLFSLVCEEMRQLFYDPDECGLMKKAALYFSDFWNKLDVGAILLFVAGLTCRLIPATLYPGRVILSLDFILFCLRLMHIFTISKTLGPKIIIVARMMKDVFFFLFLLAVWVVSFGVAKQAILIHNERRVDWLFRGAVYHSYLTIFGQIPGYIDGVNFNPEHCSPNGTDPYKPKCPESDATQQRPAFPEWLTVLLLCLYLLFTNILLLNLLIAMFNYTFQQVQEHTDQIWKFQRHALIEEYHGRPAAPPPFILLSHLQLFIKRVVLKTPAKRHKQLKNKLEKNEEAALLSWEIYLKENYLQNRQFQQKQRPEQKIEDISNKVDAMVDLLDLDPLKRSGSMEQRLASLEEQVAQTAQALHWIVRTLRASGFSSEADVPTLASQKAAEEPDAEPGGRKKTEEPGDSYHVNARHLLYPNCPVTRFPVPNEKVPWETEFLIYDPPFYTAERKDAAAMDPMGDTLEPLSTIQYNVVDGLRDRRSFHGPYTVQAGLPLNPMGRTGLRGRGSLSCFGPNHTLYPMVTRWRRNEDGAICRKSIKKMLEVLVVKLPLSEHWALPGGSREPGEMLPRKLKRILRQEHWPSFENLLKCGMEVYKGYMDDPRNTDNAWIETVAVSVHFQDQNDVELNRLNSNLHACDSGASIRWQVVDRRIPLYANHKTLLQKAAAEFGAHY
The series is described as follows: Whole-cell patch-clamp recording, K928A/D1069A double mutant in HEK293T cells. It counts as cell-based. Particulars: intracellular ADPR 500 μM. The protocol:
3. Cell culture and transfection: Human embryonic kidney 293 (HEK293) cells with tetracycline-inducible expression of human TRPM2 channel (hTRPM2) were cultured in a mixed medium containing DMEM/F-12 and 10% fetal bovine serum as well as blasticidin (50 μg/ml) and zeocin (0.4 mg/ml). The expression of hTRPM2 was induced by substituting […] (1 μg/ml) 24-48 hours before use. TRPM2 channel mutants were transiently expressed in HEK293T cells by transfection with using Lipofectamine 3000. Briefly, HEK293T cells were transiently transfected with cDNAs encoding the mutant hTRPM2 channel. The cDNA for GFP was co-transfected as a marker for identification of the transfected cells for electrophysiological experiments 16-24 hours after transfection. […]
4. Whole-cell and ingle-channel patch-clamp recording: the coverslips were placed in a culture dish (35×35 mm, Sorfa) containing HEPES based extracellular solution (ECS) and recorded by patch-clamp technique. […] Each coverslip was recorded only once with different drug exposures. […] The excised patches were voltage-clamped from −80 mV to +80 mV (in 20 mV increasement) to generate the current-voltage (I-V) relationship of single channel currents from which their main conductance was calculated from the slope by linear regression of the mean current amplitude at different potentials. […]

In series [2] the target is T2, human TRPM2 channel (hTRPM2) (Homo sapiens, UniProt O94759).
T2 construct: expressed in transfected cells; host or cells: HEK293 cells with tetracycline-inducible expression
T2 sequence (O94759 whole entry): as the sequence (O94759 whole entry K928A/D1069A) above, with A928K, A1069D counted along it
The series is described as follows: Single-channel (outside-out) patch-clamp recording, HEK-hTRPM2 cells. The conditions noted are these: FFA applied after bilirubin. It counts as cell-based. The protocol: 1. Extracellular solution (in mM): 145 NaCl, 5.6 KCl, 2 MgCl2, 1.2 CaCl2, 10 HEPES, 10 glucose and pH adjusted to 7.4 by NaOH (290-320 mOsm).
2. Pipette solution contains (in mM): 147 NaCl, 1 MgCl2, 1 EGTA and 10 HEPES with pH 7.4 and osmolality 290-320 mOsm.
3. Cell culture and transfection: Human embryonic kidney 293 (HEK293) cells with tetracycline-inducible expression of human TRPM2 channel (hTRPM2) were cultured in a mixed medium containing DMEM/F-12 and 10% fetal bovine serum as well as blasticidin (50 μg/ml) and zeocin (0.4 mg/ml). The expression of hTRPM2 was induced by substituting […] (1 μg/ml) 24-48 hours before use. TRPM2 channel mutants were transiently expressed in HEK293T cells by transfection with using Lipofectamine 3000. […]
4. Whole-cell and ingle-channel patch-clamp recording: the coverslips were placed in a culture dish (35×35 mm, Sorfa) containing HEPES based extracellular solution (ECS) and recorded by patch-clamp technique. […] Each coverslip was recorded only once with different drug exposures. […] The excised patches were voltage-clamped from −80 mV to +80 mV (in 20 mV increasement) to generate the current-voltage (I-V) relationship of single channel currents from which their main conductance was calculated from the slope by linear regression of the mean current amplitude at different potentials.
Background: Patch clamp records ionic current or voltage across a cell membrane.

The subject of series [3] is cortical neurons in adult Trpm2+/+ brain slices. Particulars: mouse, 1 h.
Method: In this assay, surviving and dead cortical neurons were labeled with calcein-am and propidium-iodide (PI), respectively (FIG. 4K), the specific process was as follows:
Trpm2^+/+ mice aged 4-8 weeks were anesthetized by intraperitoneal injection of 1% pentobarbital (55 mg/kg). The brain tissue of the mice was then acutely isolated, and brain slices with a thickness of 150 μm were obtained using a vibratome.
The brain slices were incubated with bilirubin (Bil) and bilirubin+A23 (Bil+A23) for 1 hour at 37° C., adding calcein-am (1 μM) and PI (2 μM) for the last 15 minutes, and then washed for three times before being fixed.
When the staining was completed, the cells were fixed with 4% paraformaldehyde in a dark container for 40 minutes, and finally confocal imaging was performed. Cell counts were performed using the software of Image-J to calculate the death rate.

Turning to `Nc1ncnc2c1ncn2[C@@H]1O[C@H](COP(=O)(O)OP(=O)(O)OC[C@H]2OC(O)[C@H](O)[C@@H]2O)[C@@H](O)[C@H]1O` (stereo partly drawn) [ADPR, ADP-ribose], the “activation of K928A/D1069A double mutant currents” value in series [1] is listed as “perfectly retained the agonist capacity”. Consider `O=C(O)c1ccccc1Nc1cccc(C(F)(F)F)c1` [FFA, flufenamic acid], for which the “effect on bilirubin-increased opening probability (Po)” value in series [2] was “reversed”.

Take `C=CC1=C(C)/C(=C/c2[nH]c(Cc3[nH]c(/C=C4\NC(=O)C(C)=C4C=C)c(C)c3CCC(=O)O)c(CCC(=O)O)c2C)NC1=O` [bilirubin]: the “mortality of cortical neurons” value in series [3] worked out at 60.84±2.13%.
